Data published in patent US8545872B2, “Device for the transdermal administration of a rotigotine base” (UCB Pharma GmbH, priority 2002, dated 2013).

How the values were obtained:
[1] = cited from earlier work
[2] = Solubility of rotigotine in polymers and solvents; assay type: physicochemical; details: e.g. hexane, ethyl acetate and toluol

- Solubility of the crystals in solvents suitable for dissolving matrix polymers [2]: nearly insoluble
SMILES: CCCN(CCc1cccs1)[C@H]1CCc2c(O)cccc2C1 [Rotigotine, (−)-5,6,7,8-tetrahydro-6-[propyl[2-(2-thienyl)ethyl]amino]-1-naphtol]
- Solubility in hydrophobic polymers such as silicon [1]: only feebly soluble
